Laboratory results published in patent US5942532A, “2-substituted phenyl-benzimidazole antibacterial agents” (Ortho Pharmaceutical Corporation, priority 1997, dated 1999).
pIC50: −log10 of the molar value.

Each compound was assayed against T1, Kinase A and Spo0F (Bacillus subtilis, UniProt P16497) (assay: Autophosphorylation of Kinase A and Transphosphorylation of Spo0F Assay (HPK in vitro assay)). Conditions: Table 2, KinA/Spo0F phosphorylation, in µM.
T1 construct: made in house; host or cells: recombinant E. coli
T1 sequence (P16497 1-606): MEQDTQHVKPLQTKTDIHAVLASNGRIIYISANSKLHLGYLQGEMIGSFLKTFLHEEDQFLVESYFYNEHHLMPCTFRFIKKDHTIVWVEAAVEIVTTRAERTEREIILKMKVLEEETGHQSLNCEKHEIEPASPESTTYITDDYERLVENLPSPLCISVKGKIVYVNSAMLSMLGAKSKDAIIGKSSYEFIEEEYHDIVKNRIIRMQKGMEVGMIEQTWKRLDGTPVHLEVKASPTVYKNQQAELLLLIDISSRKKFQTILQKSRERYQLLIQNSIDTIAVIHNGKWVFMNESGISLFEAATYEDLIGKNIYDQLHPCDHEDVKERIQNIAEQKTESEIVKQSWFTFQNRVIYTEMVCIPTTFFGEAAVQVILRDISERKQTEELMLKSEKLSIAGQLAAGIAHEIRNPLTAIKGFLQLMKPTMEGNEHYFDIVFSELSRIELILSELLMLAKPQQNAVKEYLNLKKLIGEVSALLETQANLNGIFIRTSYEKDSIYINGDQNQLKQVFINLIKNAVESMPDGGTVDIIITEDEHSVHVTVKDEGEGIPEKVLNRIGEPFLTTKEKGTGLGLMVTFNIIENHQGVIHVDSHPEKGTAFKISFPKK
Format: biochemical
Method: Autophosphorylation of Kinase A and Transphosphorylation of Spo0F Assay
To study the effect of the compounds of the present invention on the signal transduction process in bacteria, the inhibiting effect of the compounds on the sporulation operon proteins Kinase A and Spo0F was examined. Specifically, the inhibition of autophosphorylation of Kinase A and the transphosphorylation of Spo0F was determined in the following assays. The Spo0F response regulator is the primary substrate for phosphorylation by the protein kinase, Kin A, involved in the sporulation process in bacteria. See D. Burbulys, K. A. Trach, J. A. Hoch, Cell, 64, 545-552 (1991). Spo0F and KinA were prepared from recombinant E. coli overexpressing the proteins (J. Cavanagh et al, Amino Acids, 6, 131-140 (1994) and references therein).
The following stock reagents were either prepared and used promptly or stored at the indicated temperature:
8×Salts: 2 M KCl (5 mL), 1 M MgCl2 (800 mL), 1 M CaCl2 (100 mL), 10 mg/mL phenylmethylsulfonyl fluoride (200 mL), 1 M dithioreitol (50 mL), 0.25 M Na2 EDTA (32 mL) and H2 O 3.82 mL (-20° C.)
5×Loading Dye: 0.5M TRIS-HCl, pH 6.8 (7.5 mL), 10% SDS (2 mL) 0.1% bromophenol blue (0.5 mL), 100% glycerol (3 mL) and 12.5 M 2-mercaptoethanol (0.3 mL)
1-1.3 mg/mL KinA: 15 mM TRIS-HCl, pH 8.0, 6 mM KCl; 4 mM 2-mercaptoethanol;40% glycerol (-20° C.)
1 mg/mL Spo0F: 17.5 mM TRIS-HCl, pH 8.0; 0.7 mM KCl; 0.7 mM MgCl2; 0.7 mM CaCl2; 5 mM 2-mercaptoethanol; 30% glycerol (-20° C.)
5% Stacking Gel: 40% 29:1 acrylamide:bis acrylamide (1.25 mL), 0.5 M TRIS-HCl, pH 6.8 (2.5 mL), 10% SDS (0.1 mL), D-H2 O (6.15 mL) 10% ammonium persulfate (100 mL) and TEMED (25 mL)
SDS Running Buffer: TRIS-BASE (3.02 g), glycine (14.4 g), SDS (1 g), D-H2 O (to 1 L)
The reaction mixture was prepared from 8×Salts (87 μL), 1M TRIS, pH 8 (118 μL), 50% glycerol (63 μL), Spo0F (14.1 μL) and KinA (7.0 μL). Microcentrifuge tubes were charged with the reaction mixture (18.5 μL) and a 1.0 mM solution of the test compound in 5% DMSO (18.5 μL), and incubated for 15 min on ice. 100 mM ATP solution (3.0 μl, containing 625 μCi [^32 P]ATP) was added, and the mixture left for 10 minutes at room temperature. The reaction was quenched with 5× loading dye (10 μL per tube) and the samples were loaded on a prepared 5% Stacking Gel, or stored on dry ice until ready for use. The prepared wells were filled with SDS Running Buffer, samples were loaded into the wells, and 80 volts were applied to the gel until the dye front reached the bottom of the stacking gel. The voltage was then increased to 250 volts until electrophoresis was complete. Radioactive bands in the gel corresponding to phosphorylated KinA and Spo0F were imaged and quantitated with a phosphoimager.
If either enzyme was inhibited (as evidenced by the absence of labelled protein in the developed gel), an IC50 was calculated by running the assay with a range of inhibitor concentrations from 1 to 500 μM. After electrophoresis of the reaction mixtures, percent inhibition was determined by measuring the concentration of radioactive phosphorus with a phosphoimager and calculating the values using a software program (BioRad Molecular Analyst).

Going from N=C(N)c1ccc2[nH]c(-c3ccc(Oc4ccc(Cl)c(Cl)c4)cc3)nc2c1 [Example 60] to N=C(N)c1cc(N)c2[nH]c(-c3ccc(Oc4ccccc4)cc3)nc2c1 [Example 62], the IC50 rises from 11.4 to 19.

For N=C(N)c1cc([N+](=O)[O-])c2[nH]c(-c3ccc(Oc4ccccc4)cc3)nc2c1 [Example 61], the IC50 was 58.

Same assay, conditions: Table 3, KinA/Spo0F phosphorylation, read-out: IC50

Compared with N=C(N)c1ccc2[nH]c(-c3cccc(Oc4ccccc4)c3)nc2c1 [Example 63], Cc1ccc(Oc2cccc(-c3nc4cc(C(=N)N)ccc4[nH]3)c2)cc1 [Example 65] is 1.6-fold lower in IC50: 53 µM for the first, 33 µM for the second.

Compared with N=C(N)c1ccc2[nH]c(-c3cccc(Oc4cccc(C(F)(F)F)c4)c3)nc2c1 [Example 64], N=C(N)c1ccc2[nH]c(-c3cccc(Oc4ccc(Cl)c(Cl)c4)c3)nc2c1 [Example 67] is 1.5-fold lower in IC50: 48 µM for the first, 32 µM for the second.

N=C(N)c1ccc2[nH]c(-c3cccc(Oc4cc(Cl)cc(Cl)c4)c3)nc2c1 [Example 66] and N=C(N)c1ccc2[nH]c(-c3cccc(Oc4ccc(Cl)cc4)c3)nc2c1 [Example 69] are within 1.5-fold of each other in IC50: 32 µM for the first, 28 µM for the second.

Going from CC(C)(C)c1ccc(Oc2cccc(-c3nc4cc(C(=N)N)ccc4[nH]3)c2)cc1 [Example 68] to COc1ccc(Oc2cccc(-c3nc4cc(C(=N)N)ccc4[nH]3)c2)cc1 [Example 70], the IC50 rises from 31.6 µM to 69.2 µM (2.2-fold).

Same assay, conditions: Table 4, KinA/Spo0F phosphorylation, read-out: IC50

Going from N=C(N)c1ccc2nc(-c3ccc4oc5ccccc5c4c3)[nH]c2c1 [Example 71] to N=C(N)c1ccc2nc(-c3ccc4ccccc4c3)[nH]c2c1 [Example 74], the IC50 rises from 17.3 µM to 120 µM (6.9-fold).

Compared with N=C(N)c1ccc2nc(-c3ccc4c(c3)Cc3ccccc3-4)[nH]c2c1 [Example 72], CCn1c2ccccc2c2ccc(-c3nc4ccc(C(=N)N)cc4[nH]3)cc21 [Example 73] is 2.9-fold lower in IC50: 64.3 µM for the first, 22.0 µM for the second.

N=C(N)c1ccc2nc(-c3ccc4ccccc4c3O)[nH]c2c1 [Example 75] and CN1c2ccccc2C(C)(C)C12C=Cc1cc(-c3nc4ccc(C(=N)N)cc4[nH]3)ccc1O2 (centres unmarked) [Example 78] are within 1.5-fold of each other in IC50: 127 µM for the first, 114 µM for the second.

Compared with N=C(N)c1ccc2nc(-c3cc4c5c(c3)CCCN5CCC4)[nH]c2c1 [Example 76], N=C(N)c1ccc2nc(-c3cc4c5c(c3O)CCCN5CCC4)[nH]c2c1 [Example 77] is 4.6-fold lower in IC50: 85 µM for the first, 18.5 µM for the second.

Same assay, conditions: Table 5, KinA/Spo0F phosphorylation, in µM

Going from N=C(N)c1ccc(Oc2ccc(-c3nc4ccccc4[nH]3)cc2)cc1 [Example 79] to N=C(N)c1ccc2nc(-c3ccc(Oc4ccc5[nH]cnc5c4)cc3)[nH]c2c1 [Example 80], the IC50 falls from 241 to 94.

First: N=C(N)c1ccc2nc(-c3ccc(N4CCN(c5ccccc5)CC4)cc3)[nH]c2c1 [Example 81]
Second: N=C(N)Cn1c(-c2ccc(N(c3ccccc3)c3ccccc3)cc2)nc2ccc(C(=N)N)cc21 [Example 82]
The IC50 of the first is higher: 26 for the first, 22 for the second.

Same assay, conditions: Table 6, KinA/Spo0F phosphorylation, in µM

Compared with c1ccc(Oc2ccc(-c3nc4ccc(C5=NCCN5)cc4[nH]3)cc2)cc1 [Example 83], c1ccc(Oc2ccc(-c3nc4ccc(-c5nc6ccccc6[nH]5)cc4[nH]3)cc2)cc1 [Example 84] is lower in IC50: 112.4 for the first, 32.3 for the second.

Going from CC(C)(C)c1cc(-c2nc3ccc(C4=NCCN4)cc3[nH]2)c(O)c(C(C)(C)C)c1 [Example 85] to CC(C)(C)c1cc(-c2nc3ccc(C4=NCCCN4)cc3[nH]2)c(O)c(C(C)(C)C)c1 [Example 86], the IC50 rises from 4 to 32.

First: CC(C)(C)c1cc(-c2nc3ccc(C4=NCCCCN4)cc3[nH]2)c(O)c(C(C)(C)C)c1 [Example 87]
Second: CC1(C)CN=C(c2ccc3nc(-c4cc(C(C)(C)C)cc(C(C)(C)C)c4O)[nH]c3c2)N1 [Example 88]
The IC50 of the first is higher: 29 for the first, 12 for the second.

Going from CC(C)(C)c1cc(-c2nc3ccc(N)cc3[nH]2)c(O)c(C(C)(C)C)c1 [Example 90] to CC(C)(C)c1cc(-c2nc3ccc(CN)cc3[nH]2)c(O)c(C(C)(C)C)c1 [Example 91], the IC50 falls from 152 to 4.

Same assay, conditions: Table 6, KinA/Spo0F phosphorylation, read-out: IC50

CC(C)(C)c1cc(-c2nc3ccc(C(=O)O)cc3[nH]2)c(O)c(C(C)(C)C)c1 [Example 89] was tested, and the pIC50 was 4.07.
